Among the test systems are A498; A549; CAKI-1; HCC 2998; HCT-116; HCT-15; HOP-92; KM12; MCF7; NCI-H226; NCI-H460; NCI-H522; OVCAR-8; SF-539; SN12C; SNB-19; SNB-75; SW-620; UACC-257; UO-31.
Common to all, as to test: NCI tumour cell line growth inhibition, 48 h

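Each compound was tested at five concentrations against cells in 96-well plates for 48 hours. The concentration for 50% growth inhibition is given as GI50.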 Calls of active or inactive are those of the source. Rule as the data show it: active = GI50 up to about 1.1 µM and inactive = higher.

As for `CCOC(=O)C[n+]1ccc2c([nH]c3cc(OC)ccc32)c1C`, the GI50 in the experiment on A498 was > 81.5 µM (inactive); with A549, > 100 µM (inactive); with CAKI-1 it was > 100 µM (inactive); with HCC 2998, > 100 µM (inactive); in the experiment with HCT-116, 61 µM (inactive); in the experiment on HCT-15 it was above 100 µM. Moreover, the GI50 is > 70.3 µM (inactive) in the experiment with HOP-92; > 100 µM (inactive) with KM12; > 95.5 µM (inactive) with MCF7; 36.8 µM (inactive) in the experiment on NCI-H226; > 88.1 µM (inactive) in the experiment on NCI-H460; 68.2 µM (inactive) with NCI-H522. The GI50 is > 87.1 µM (inactive) in the experiment with OVCAR-8; > 100 µM (inactive) in the experiment on SF-539; > 81.5 µM (inactive) with SN12C; > 100 µM (inactive) in the experiment with SNB-19; > 100 µM (inactive) in the experiment with SNB-75; > 100 µM (inactive) in the experiment on SW-620. For the same molecule, the figures for the GI50 with UACC-257 and in the experiment on UO-31 were > 100 µM (inactive) and > 39.4 µM (inactive), respectively.
Consider `Cc1ccc(OP2(=O)Oc3ccc4ccccc4c3CN2c2ccc(Cl)cc2)cc1C` (stereo not given), for which the GI50 in the experiment on A498 is > 100 µM (inactive); with A549, > 100 µM (inactive); in the experiment with CAKI-1 it was > 100 µM (inactive); in the experiment with HCC 2998, > 100 µM (inactive); in the experiment on HCT-116, > 100 µM (inactive); with HCT-15, above 100 µM. In addition, the GI50 with HOP-92, with KM12, in the experiment with MCF7, in the experiment with NCI-H226, in the experiment on NCI-H460 and in the experiment on NCI-H522 was > 100 µM (inactive) each time. Moreover, the GI50 in the experiment with OVCAR-8, in the experiment on SF-539, in the experiment on SN12C, with SNB-19, with SNB-75 and in the experiment with SW-620 was > 100 µM (inactive) each time. The GI50 in the experiment with UACC-257 and in the experiment on UO-31 was > 100 µM (inactive) each time.
Take `O=C(O)C1CCC(=O)N1S(=O)(=O)c1ccccc1` (stereo not given): the GI50 in the experiment with A498 is > 100 µM (inactive); with A549, > 100 µM (inactive); in the experiment with CAKI-1, > 100 µM (inactive); in the experiment on HCC 2998 it was > 100 µM (inactive); in the experiment on HCT-116, > 100 µM (inactive); in the experiment with HCT-15 it was above 100 µM. Besides, the GI50 in the experiment with HOP-92 is 99.1 µM (inactive); with KM12 it was > 100 µM (inactive); in the experiment on MCF7, > 100 µM (inactive); in the experiment on NCI-H226, > 100 µM (inactive); in the experiment with NCI-H460 it was > 100 µM (inactive); in the experiment on NCI-H522, > 100 µM (inactive). Further, the GI50 in the experiment on OVCAR-8, with SF-539, in the experiment with SN12C, in the experiment with SNB-19, in the experiment on SNB-75 and in the experiment with SW-620 was > 100 µM (inactive) each time. The GI50 in the experiment with UACC-257 and with UO-31 was > 100 µM (inactive) throughout.
Regarding `CSCSCC(N)CO.Cc1[nH]c(=O)[nH]c(=O)c1/C=C/C(=O)O`, the GI50 in the experiment on A498 was > 625 µM (inactive); in the experiment on A549, > 625 µM (inactive); with CAKI-1, 624 µM (inactive); with HCC 2998, > 625 µM (inactive); in the experiment on HCT-116, > 625 µM (inactive); in the experiment with HCT-15, above 625 µM. The GI50 was 583 µM (inactive) in the experiment with HOP-92; > 625 µM (inactive) in the experiment with KM12; > 625 µM (inactive) with MCF7; > 625 µM (inactive) with NCI-H226; > 625 µM (inactive) with NCI-H460; > 625 µM (inactive) in the experiment with NCI-H522. Besides, the GI50 in the experiment on OVCAR-8 was 492 µM (inactive); with SF-539, > 625 µM (inactive); in the experiment on SN12C, > 625 µM (inactive); with SNB-19, > 625 µM (inactive); in the experiment on SNB-75, 447 µM (inactive); in the experiment with SW-620, > 625 µM (inactive). The GI50 in the experiment on UACC-257 and in the experiment on UO-31 was > 625 µM (inactive) each time.
For the molecule `O=c1oc2cc(O)ccc2c2oc3cc(O)ccc3c12` [COUMESTROL], the GI50 was 0.248 µM (active) with A498; 43.1 µM (inactive) in the experiment with A549; 49.9 µM (inactive) in the experiment on CAKI-1; 53.6 µM (inactive) with HCC 2998; 32.7 µM (inactive) with HCT-116; 54.5 µM in the experiment on HCT-15. Besides, the GI50 with HOP-92 was > 118 µM (inactive); in the experiment on KM12, 111 µM (inactive); in the experiment on MCF7 it was 96.8 µM (inactive); in the experiment with NCI-H226, 4.18 µM (inactive); with NCI-H460, 38.6 µM (inactive); in the experiment with NCI-H522, 6.46 µM (inactive). Besides, the GI50 in the experiment with OVCAR-8 is 70 µM (inactive); in the experiment with SF-539, 56.6 µM (inactive); in the experiment with SN12C, 13.2 µM (inactive); in the experiment with SNB-19, 47.6 µM (inactive); in the experiment on SNB-75, 94.8 µM (inactive); with SW-620 it was 59 µM (inactive). The results for the GI50 in the experiment with UACC-257 and in the experiment with UO-31 were 87.9 µM (inactive) and 48.3 µM (inactive), respectively.
